Measured values from patent US5776929A, “Benzodiazepine derivative” (Shionogi & Co., Ltd., priority 1993, dated 1998).
Read-outs that look alike come from different tables or passages of the source.

Key:
gastrin receptor = target: T1, gastrin receptor (Cavia porcellus, UniProt H0VZC5); experiment: Gastrin receptor antagonism, displacement of 125I-labeled gastrin, gastric (fundic) gland cells; format: binding, guinea pig (male Hartley)
T1 construct: stomach was extracted from each animal immediately, from which gastric glands were prepared; from tissue; host or cells: gastric (fundic) glands of male Hartley guinea pigs
T1 sequence (H0VZC5 1-426): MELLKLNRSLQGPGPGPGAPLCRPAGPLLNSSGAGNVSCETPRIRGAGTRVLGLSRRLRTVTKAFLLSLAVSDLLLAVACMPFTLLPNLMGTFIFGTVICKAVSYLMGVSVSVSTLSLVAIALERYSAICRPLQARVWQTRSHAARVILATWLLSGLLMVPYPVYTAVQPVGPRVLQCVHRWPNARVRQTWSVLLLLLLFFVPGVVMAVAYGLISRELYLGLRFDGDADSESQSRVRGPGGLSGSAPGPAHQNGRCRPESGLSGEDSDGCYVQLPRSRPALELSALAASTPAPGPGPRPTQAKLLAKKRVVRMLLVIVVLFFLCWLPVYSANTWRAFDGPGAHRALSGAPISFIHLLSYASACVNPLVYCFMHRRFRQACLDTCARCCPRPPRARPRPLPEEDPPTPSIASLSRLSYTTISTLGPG
Protocol: (§1) Male Hartley guinea pig (450-600 g) or male ddY mouse (24-30 g) were used.
(1) Gastrin Receptor Antagonism
Preparation of gastric glands:
Male Hartley guinea pigs (450-600 g) were killed by bleeding and stomach was extracted from each animal immediately, from which gastric glands were prepared.
Preparation of test compounds and procedures of displacing assay
A 1M solution of a compound to be tested in DMSO is prepared and diluted with 50% DMSO to obtain a ten-fold dilution series.
The mixture is incubated for 30 min at 25° C., centrifuged at 2000 rpm for 5 min and the supernatant is removed by aspiration. To the pellet is added ice-cooled incubation buffer and mixed gently, followed by an immediate centrifugation and removal of the supernatant by aspiration. The radioactivity is counted on gamma counter. The same procedure was repeated using 50% DMSO solution or human gastrin I (final concentration, 2 μM) instead of a solution of test compound so as to obtain the control value regarding total binding or the value regarding non-specific binding, respectively. […]
(§2) specific binding of control=total binding (cpm)-non-specific binding (cpm); and specific binding of test compound=[…]-non-specific binding (cpm).

CCK-B receptor = target: T2, CCK-B receptor (Mus musculus, UniProt P56481); experiment: CCK-B receptor antagonism, displacement of [3H]CCK-8, cerebral cortex crude membrane; format: binding, mouse (male ddY)
T2 construct: crude membrane specimen from mouse cerebral cortex; from tissue; host or cells: cerebral cortex of male ddY mice, crude membranes
T2 sequence (P56481 1-453): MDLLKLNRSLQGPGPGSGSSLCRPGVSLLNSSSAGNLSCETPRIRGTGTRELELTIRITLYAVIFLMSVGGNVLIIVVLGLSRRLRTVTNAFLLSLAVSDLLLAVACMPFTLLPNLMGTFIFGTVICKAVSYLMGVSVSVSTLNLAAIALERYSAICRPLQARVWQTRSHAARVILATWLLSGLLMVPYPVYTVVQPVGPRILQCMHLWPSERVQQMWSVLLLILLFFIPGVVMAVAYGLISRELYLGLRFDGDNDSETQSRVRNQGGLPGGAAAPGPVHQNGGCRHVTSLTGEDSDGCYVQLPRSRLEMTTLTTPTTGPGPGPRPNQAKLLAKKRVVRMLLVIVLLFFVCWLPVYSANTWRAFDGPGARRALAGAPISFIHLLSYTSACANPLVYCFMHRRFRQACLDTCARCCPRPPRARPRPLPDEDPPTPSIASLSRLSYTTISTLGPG
Protocol: as §1
(§3) (2) CCK-A Receptor Antagonism and CCK-B Receptor Antagonism
(§4) Preparation of CCK receptor preparations
(§5) Male ddY mice (24 to 30 g) were killed by decapitation and cerebral cortex (CCK-B) and pancreas (CCK-A) were extracted immediately. Each of cerebral cortex and pancreas was mixed with 50 mM Tris-HCl buffer (pH 7.4) and homogenized with a teflon-glass homogenizer and polytron homogenizer to obtain crude membrane specimens.
(§6) Preparation of test compounds and procedures of displacing assay A 1M solution of a compound to be tested in DMSO is prepared and diluted with 50% DMSO to obtain a ten-fold dilution series.
(§7) The reaction is initiated by the addition of crude membrane specimen to solutions of different concentration each containing [^3 H]CCk-8 (final concentration, 1 nM). The mixture is incubated for 90 min at 25° C., filtered through glass filter with aspiration and washed with a cooled 50 mM Tris buffer. After the addition of Aquazol-2 cocktail the radioactivity is counted. The same procedure was repeated using 50% DMSO solution or Ceruletide (final concentration, 1 μM) instead of a solution of test compound so as to obtain the control value regarding total binding or the value regarding non-specific binding, respectively. […]
as §2

CCK-A receptor = target: T3, CCK-A receptor (Mus musculus, UniProt O08786); experiment: CCK-A receptor antagonism, displacement of [3H]CCK-8, pancreas crude membrane; format: binding, mouse (male ddY)
T3 construct: crude membrane specimen from mouse pancreas; from tissue; host or cells: pancreas of male ddY mice, crude membranes
T3 sequence (O08786 1-436): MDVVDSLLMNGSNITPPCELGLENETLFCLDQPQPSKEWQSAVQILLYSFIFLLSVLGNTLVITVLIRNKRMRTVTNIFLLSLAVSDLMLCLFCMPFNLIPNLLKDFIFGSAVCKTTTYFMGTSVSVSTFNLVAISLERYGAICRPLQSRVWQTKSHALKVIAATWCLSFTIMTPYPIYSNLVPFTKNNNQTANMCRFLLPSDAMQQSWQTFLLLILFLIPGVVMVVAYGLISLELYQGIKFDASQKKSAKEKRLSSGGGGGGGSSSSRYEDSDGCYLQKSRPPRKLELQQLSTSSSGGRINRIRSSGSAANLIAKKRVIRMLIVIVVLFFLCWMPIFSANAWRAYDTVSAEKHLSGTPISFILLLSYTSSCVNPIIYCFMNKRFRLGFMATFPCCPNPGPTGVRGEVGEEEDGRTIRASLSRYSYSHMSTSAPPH
Protocol: as §1, §3, §4, §5, §6, §7, §2

[1] = guinea pig gastric glands, 125I-gastrin 0.2 nM, 30 min, 25 °C, read-out: Receptor Gastrin (IC50)
[2] = mouse cerebral cortex membrane, [3H]CCK-8 1 nM, 90 min, 25 °C, read-out: Receptor CCK-B (IC50)
[3] = mouse pancreas membrane, [3H]CCK-8 1 nM, 90 min, 25 °C, read-out: Receptor CCK-A (IC50)

IC50 (gastrin receptor; [1])	IC50 (CCK-B receptor; [2])	IC50 (CCK-A receptor; [3])	SMILES	IC50 (gastrin receptor)	IC50 (CCK-B receptor)	IC50 (CCK-A receptor)
0.006 µM	0.038 µM	0.8 µM	O=C(O)CCCNC(=O)OCc1cccc(NC(=O)NC2C(=O)N(CC(=O)c3ccco3)c3ccccc3N(CC(=O)c3ccco3)C2=O)c1 [Compound 11f, 1,5-Bis-(2-furylcarbonylmethyl)-3-(N'-(3-(3-(carboxy)propylcarbamoyloxymethyl)phenyl)ureido)-1H-1,5-benzodiazepine-2,4(3H,5H)-dione]	–	–	–
0.064 µM	0.38 µM	2.1 µM	O=C(CN1C(=O)C(NC(=O)Nc2cccc(COC(=O)NCCCC(=O)OCc3ccccc3)c2)C(=O)N(CC(=O)NC2CC2)c2ccccc21)NC1CC1 [Compound 10c, 1,5-Bis-(cyclopropylcarbamoylmethyl)-3-(N'-(3-(3-(benzoyloxycarbonyl)propylcarbamoyloxymethyl)-phenyl)ureido)-1H-1,5-benzodiazepine-2,4 (3H,5H)-dione]	–	–	–
0.018 µM	0.036 µM	1.85 µM	O=C(O)CCCNC(=O)OCc1cccc(NC(=O)NC2C(=O)N(CC3CC3)c3ccccc3N(CC3CC3)C2=O)c1 [Compound 11o, 1,5-Bis-(cyclopropylmethyl)-3-(N'-(3-(3-(carboxy)propylcarbamoyloxymethyl)phenyl)ureido)-1H-1,5-benzodiazepine-2,4(3H,5H)-dione]	–	–	–
0.006 µM	0.011 µM	< 0.1 µM	COC(=O)CCCNC(=O)OCc1cccc(NC(=O)NC2C(=O)N(CC(=O)c3ccccc3C)c3ccccc3N(CC(=O)c3ccccc3C)C2=O)c1 [Compound 9d, 1,5-Bis-(o-methylphenacyl)-3-(N'-(3-(3-(carbomethoxy)propylcarbamoyloxymethyl)phenyl)ureido)-1H-1,5-benzodiazepine-2,4(3H,5H)-dione]	–	–	–
0.025 µM	0.44 µM	3.2 µM	CCOC(=O)c1cccc(NC(=O)NC2C(=O)N(CC(=O)N3CCCC3)c3ccccc3N(CC(=O)N3CCCC3)C2=O)c1 [Compound 18-i, 1,5-Bis-(pyrrolidinocarbonylmethyl)-3-(N'-(m-(carboethoxy)phenyl)ureido)-1H-1,5-benzodiazepine-2,4(3H,5H)-dione]	–	–	–
0.031 µM	0.078 µM	3.9 µM	COC(=O)CCCNC(=O)OCc1cccc(NC(=O)NC2C(=O)N(CC3CC3)c3ccccc3N(CC3CC3)C2=O)c1 [Compound 9o, 1,5-Bis-(cyclopropylmethyl)-3-(N'-(3-(3-(carbomethoxy)propylcarbamoyloxymethyl)phenyl)ureido)-1H-1,5-benzodiazepine-2,4(3H,5H)-dione]	–	–	–
0.008 µM	0.13 µM	2.1 µM	COC(=O)CCCNC(=O)OCc1cccc(NC(=O)NC2C(=O)N(CC(=O)N3CCCC3)c3ccccc3N(CC(=O)N3CCCC3)C2=O)c1 [Compound 9a, 1,5-Bis-(pyrrolidinecarbonylmethyl)-3-(N'-(3-(3-(carbomethoxy)propylcarbamoyloxymethyl)phenyl)ureido)-1H-1,5-benzodiazepine-2,4(3H,5H) -dione]	–	–	–
0.007 µM	0.002 µM	0.29 µM	COC(=O)CCCNC(=O)OCc1cccc(NC(=O)NC2C(=O)N(CC(=O)C3CCCC3)c3ccccc3N(CC(=O)C3CCCC3)C2=O)c1 [Compound 9i, 1,5-Bis-(cyclopentylcarbonylmethyl)-3-(N'-(3-(3-(carbomethoxy)propylcarbamoyloxymethyl)phenyl)ureido)-1H-1,5-benzodiazepine-2,4(3H,5H)-dione]	–	–	–
0.007 µM	0.062 µM	1.4 µM	COC(=O)CCCNC(=O)OCc1cccc(NC(=O)NC2C(=O)N(CC(=O)c3ccco3)c3ccccc3N(CC(=O)c3ccco3)C2=O)c1 [Compound 9f, 1,5-Bis-(2-furylcarbonylmethyl)-3-(N'-(3-(3-(carbomethoxy)propylcarbamoyloxymethyl)phenyl)ureido) -1H-1,5-benzodiazepine-2,4(3H,5H)-dione]	–	–	–
0.004 µM	0.02 µM	1.25 µM	COC(=O)CCCNC(=O)OCc1cccc(NC(=O)NC2C(=O)N(CC(=O)C3CC3)c3ccccc3N(CC(=O)C3CC3)C2=O)c1 [Compound 9h, 1,5-Bis-(cyclopropylcarbonylmethyl)-3-(N'-(3-(3-(carbomethoxy)propylcarbamoyloxymethyl)phenyl)ureido)-1H-1,5-benzodiazepine-2,4(3H,5H)-dione]	–	–	–
0.003 µM	0.007 µM	0.42 µM	COC(=O)CCCNC(=O)OCc1cccc(NC(=O)NC2C(=O)N(CC(=O)c3cccs3)c3ccccc3N(CC(=O)c3cccs3)C2=O)c1 [Compound 9g]	–	–	–
–	–	–	COC(=O)CCCNC(=O)OCc1cccc(NC(=O)NC2C(=O)N(CC(=O)N3CCSC3)c3ccccc3N(CC(=O)N3CCSC3)C2=O)c1 [Compound 9b, 1,5-Bis-(thiazolidinecarbonylmethyl)-3-(N'-(3-(3-(carbomethoxy)propylcarbamoyloxymethyl)phenyl)ureido)-1H-1,5-benzodiazepine-2,4(3H,5H)-dione]	0.014 µM	0.12 µM	0.36 µM

SMILES	IC50 (gastrin receptor; [1])	IC50 (CCK-B receptor; [2])	IC50 (CCK-A receptor; [3])	IC50 (gastrin receptor)	IC50 (CCK-B receptor)	IC50 (CCK-A receptor)
Cc1cccc(NC(=O)NC2C(=O)N(CC(=O)OC(C)(C)C)c3ccccc3N(CC(=O)OC(C)(C)C)C2=O)c1 [Compound 8s, 1,5-Bis-(t-butoxycarbonylmethyl)-3-(N'-(m-tolyl)ureido)-1H-1,5-benzodiazepine-2,4(3H,5H)-dione]	0.002 µM	0.002 µM	0.1 µM	–	–	–
CC(C)(C)OC(=O)CN1C(=O)C(NC(=O)Nc2cccc(COC(=O)NCCCC(=O)OCc3ccccc3)c2)C(=O)N(CC(=O)OC(C)(C)C)c2ccccc21 [Compound 10s, 1,5-Bis-(tert-butoxycarbonylmethyl)-3-(N'-(3-(3-(benzyloxycarbonyl)propylcarbamoyloxymethyl)phenyl)-ureido)-1H-1,5-benzodiazepine-2,4(3H,5H)-dione]	0.007 µM	0.004 µM	< 0.1 µM	–	–	–
